Three molecules from patent EP0183271B1, “Lysin derivative and proteinase inhibitor” (Okamoto, Shosuke, priority 1984, dated 1986) can be followed below.

Structures can show the parent of a compound that is named as a salt.

For test [1], the target named is T1, Plasmin (Homo sapiens, UniProt P00747). Description: biochemical. As to conditions: substrate S-2251. The method, then: (§1) (1) Evaluation of Antiplasmin Activity
(ii) Determination of prevention activity for S-2251 decomposition
An inhibitor sample is dissolved in a 0.05 M Tris-hydrochloric acid buffer solution (pH = 7.4) to make the total volume to 400 µl. To this solution, 50 pl of a 3 mM S-2251 solution is added and the mixture is incubated at a temperature of 37°C for 5 minutes in a constant temperature bath. Then, 50 pl of a 0.2 casein unit/ml human plasmin is added and the mixture is incubated at a temperature of 37°C for 4 minutes. Thereafter, the reaction is stopped by adding 50 µl of 50% acetic acid.
The absorbance of p-nitroaniline formed in the reaction mixture is determined at 405 nm. Thus, the concentration I50 of the inhibitor sample, at which the absorbance is one half (i.e., 1/2) of that obtained in the absence of the inhibitor, is determined.

In test [2] the target is T1, Plasmin. Description: biochemical. Conditions: Table IV, present compounds; plasmin, fibrin decomposition; read-out: I50 Fibrin. The method, then: as §1
(i) Determination of prevention activity for fibrin decomposition
0.18 M borate-physiological salt buffer solution (pH = 7.4) to make the total volme to 600 pl. To this buffer solution, 200 µl of a 0.2% bovin fibrinogen, 100 µl of a 0.3 cassein unit/ml human […] solution, and 100 µl of a 50 unit/ml bovine thrombin solution, all dissolved in the above-mentioned buffer, are added at a temperature of 37°C in a constant temperature bath. Then, the dissolution time of the fibrin mass formed above is determined.

Test [3] addresses T1, Plasmin. Description: Antiplasmin activity: prevention of fibrinogen decomposition. Type of test: biochemical. As to conditions: Table IV, present compounds, read-out: I50 Fibrinogen. The method, then:
as §1
(iii) Determination of prevention activity for fibrinogen
An inhibitor sample is dissolved in a 0.18 M borate-physiological salt buffer solution (pH = 7.4) to make the total volume to 400 µl. To this solution, 500 pl of a 0.4% bovine fibrinogen solution and 100 pl of a 1 casein unit/ml human plasmin solution, all dissolved in the above-mentioned buffer are added at a temperature of 37°C in a constant temperature bath. After the mixture is allowed to stand at a temprature of 37°C for 10 minutes, 3800 µl of the above-mentioned buffer containing (3.2 mM of tranexamic acid and 200 µl of a 50 unit/ml bovine thrombin solution are added to terminate the reaction. The mixture is incubated at a temperature of 37°C for 15 minutes to precipitate the fibrin. The fibrin mass thus precipitated is adhered to or wound around a glass rod and is then washed with water. The amount of the remaining fibrinogen is determined according to a tyrosine coloring method using a phenol reagent (see J. Biol. Chem., 73, 627 (1927). From the amount of the remaining fibrinogen thus determined, the amount of decomposed fibrinogen is calculated. Thus, the concentration 150 of the inhibitor sample, at which the amount of decomposed fibrinogen is one half (i.e., 1/2) of that obtained in the absence of the inhibitor sample, is determined.

Setting [4] is: Table IV, present compounds, plasmin, read-out: I50 S-2251.

T1 sequence (P00747 581-810 limits assumed): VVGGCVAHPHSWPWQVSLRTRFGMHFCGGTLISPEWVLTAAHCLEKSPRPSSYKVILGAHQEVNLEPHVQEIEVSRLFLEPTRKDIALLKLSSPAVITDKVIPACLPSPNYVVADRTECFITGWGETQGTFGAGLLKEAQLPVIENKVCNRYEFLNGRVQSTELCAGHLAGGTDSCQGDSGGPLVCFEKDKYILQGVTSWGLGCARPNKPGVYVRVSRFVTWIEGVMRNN
T1 sequence (P00747 97-580 partner limits assumed): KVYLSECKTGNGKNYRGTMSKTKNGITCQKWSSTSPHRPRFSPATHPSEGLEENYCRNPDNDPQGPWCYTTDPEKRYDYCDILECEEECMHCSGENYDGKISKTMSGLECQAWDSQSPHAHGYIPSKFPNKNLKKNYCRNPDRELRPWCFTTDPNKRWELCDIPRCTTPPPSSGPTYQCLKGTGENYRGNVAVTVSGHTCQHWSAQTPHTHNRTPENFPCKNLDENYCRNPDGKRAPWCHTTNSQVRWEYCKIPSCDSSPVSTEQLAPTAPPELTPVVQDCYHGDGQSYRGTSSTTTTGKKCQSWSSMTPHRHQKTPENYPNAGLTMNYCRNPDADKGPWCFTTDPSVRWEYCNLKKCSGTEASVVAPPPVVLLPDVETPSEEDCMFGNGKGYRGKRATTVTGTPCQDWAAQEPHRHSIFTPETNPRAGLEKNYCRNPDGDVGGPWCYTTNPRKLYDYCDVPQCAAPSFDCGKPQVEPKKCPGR

Turning to `Cc1ccc(S(=O)(=O)N[C@@H](CCCCN)C(=O)Nc2ccc([N+](=O)[O-])cc2)cc1` [Compound No. 3, N^2-(p-toluenesulfonyl)-L-lysine p-nitroanilide hydrochloride], the IC50 on Plasmin [1] (Table III, known compounds of Table II, *1: 0% Inhibition at the given concentration, read-out: I50 Plasmin S-2251) came out at 50000 µM; at Plasmin [1] (setting [4]), 700 µM; on Plasmin [2], 780 µM; at Plasmin [3], 900 µM.
With `CCOC(=O)c1cc(NC(=O)[C@H](CCCCN)NS(=O)(=O)c2cccc3ccccc23)cc(C(=O)OCC)c1` [Compound No. 11], the IC50 came out at 390 µM on Plasmin [1] (setting [4]), 75 µM on Plasmin [2] and 80 µM on Plasmin [3].
As for `Cc1ccc(S(=O)(=O)N[C@@H](CCCCN)C(=O)Nc2ccc(C(=O)c3ccccc3)cc2)cc1` [compound 36], the IC50 at Plasmin [1] (setting [4]) amounted to 140 µM; at Plasmin [3], 200 µM.
